According to BigSolDB 2.1:

CCC(C)n1ncn(-c2ccc(N3CCN(c4ccc(OC[C@H]5CO[C@](Cn6cncn6)(c6ccc(Cl)cc6Cl)O5)cc4)CC3)cc2)c1=O (mixture of isomers)
solubility (mole fraction)
Settings | 283.15 K | 288.15 K | 293.15 K | 298.15 K | 303.15 K | 308.15 K | 313.15 K | 318.15 K | 323.15 K
in DMSO | 0.000184 | 0.000237 | 0.000309 | 0.000391 | 0.000469 | 0.000579 | 0.000707 | 0.000888 | 0.00107
in ethanol | 6.88e-06 | 9.34e-06 | 1.26e-05 | 1.66e-05 | 2.16e-05 | 2.83e-05 | 3.73e-05 | 5.03e-05 | 6.36e-05
in isopropanol | 8.3e-06 | 1.04e-05 | 1.3e-05 | 1.57e-05 | 2.02e-05 | 2.48e-05 | 3.02e-05 | 3.65e-05 | 4.37e-05
in methanol | 1.64e-05 | 2.14e-05 | 2.81e-05 | 3.7e-05 | 4.9e-05 | 6.17e-05 | 7.78e-05 | 9.7e-05 | 0.00012
in water | 4.17e-09 | 6.55e-09 | 1.03e-08 | 1.55e-08 | 2.6e-08 | 3.69e-08 | 5.55e-08 | 8.36e-08 | 1.21e-07
